Ends that are not written are not given here. Peptide text beside a SMILES is read from it. * marks the point of attachment. Myristoyl = CCCCCCCCCCCCCC(=O)*
Tests used:
[1] = system: ZO-1 expression in Caco-2 cells; experiment: Immunoblot of total protein extracts from Caco-2 cells, ZO-1; assay type: cell-based, human; settings: Caco-2, 1 h, peptides 50 μM, In 10 μM, normalised to actin
Description: (§1) Caco-2 cells (ATCC, Manassas, VA, USA) were cultured in T75 flasks (Merck, Schaffhausen, Switzerland). The cells were incubated at 37 °C and a humidified atmosphere containing 5% of CO2. The medium containing 10% fetal bovine serum (FBS, Thermofisher, Waltham, MA, USA) was changed every 2–3 days. The Caco-2 cells were passaged every 5 days. The passage numbers were between 33 and 36.
(§2) For Western blot experiments, cells were seeded in 12-well plates (Merck, Schaffhausen, Switzerland) at a density of 50′000 cells/cm^2. For the proteomic experiments, the cells were seeded in T10 flasks (Merck, Schaffhausen, Switzerland) at the same initial seeding density. After 7 days and two washes with warm phosphate buffered saline (PBS, Thermofisher, Waltham, MA, USA), the conditions were applied for 1 h. Peptides were applied at a concentration between 20 and 100 μM. A chemical inhibitor of PKC ζ was also tested. The molecule 4f was used at a concentration of 10 μM in 0.1% DMSO as a positive control. […]
(§3) 50 μg cell extracts and p-threonine proteins were separated by SDS-polyacrylamide gel electrophoresis (4–15%) (Bio-Rad, Hercules, CA, USA) and transferred to nitrocellulose membrane. […] These primary antibodies were then recognized by anti-mouse and anti-rabbit antibodies (Li-Cor Biosciences, Lincoln, NE, USA) and detected by Odyssey® imaging system (Li-Cor Biosciences). […]

Caco-2 cells = experiment: Quantitative proteomic analysis (DIA LC-MS/MS) of Caco-2 cells; assay type: cell-based, human; settings: Caco-2, 1 h
Description: For Western blot experiments, cells were seeded in 12-well plates (Merck, Schaffhausen, Switzerland) at a density of 50′000 cells/cm^2. For the proteomic experiments, the cells were seeded in T10 flasks (Merck, Schaffhausen, Switzerland) at the same initial seeding density. After 7 days and two washes with warm phosphate buffered saline (PBS, Thermofisher, Waltham, MA, USA), the conditions were applied for 1 h. Peptides were applied at a concentration between 20 and 100 μM. A chemical inhibitor of PKC ζ was also tested. The molecule 4f was used at a concentration of 10 μM in 0.1% DMSO as a positive control. All dilutions were done in 0.9% saline solution. After incubation, cells for Western blot experiments were lysed with RIPA buffer (Cell signalling, Danvers, MA, USA) containing protease and phosphatase inhibitors (Roche, Basel, Switzerland). After centrifugation to discard cell components, the samples were stored at −20 °C. Cells for proteomic analysis were detached with trypsin, washed 3 times with PBS and kept at −80 °C until analysis. Samples for proteomic analysis were produced in triplicate for each condition.
Cell pellets were resuspended in 100 μL of 0.1% RapiGest Surfactant (Waters, Milford, MA, USA) in 50 mM ammonium bicarbonate (AB). Samples were heated for 5 min at 100 °C. Lysis was performed by sonication (6 × 30 s) at 70% amplitude and 0.5 pulse. Samples were kept 30 s on ice between each cycle of sonication. Samples were centrifuged for 10 min at 14′000×g. Protein concentration was measured by Bradford assay and 25 μg of each sample was subjected to protein digestion as follows: the sample volume was adjusted to 100 μL with 0.1% RapiGest in 50 mM AB. 2 μL of 50 mM dithioerythritol (DTE) were added and the reduction was carried out at 60 °C for 1h. Alkylation was performed by adding 2 μL of iodoacetamide 400 mM during 1 h at room temperature in the dark. Overnight digestion was performed at 37 °C with 5 μL of freshly prepared trypsin (Promega AG, Dübendorf, Switzerland) in 50 mM AB at a concentration of 0.2 μg/μL. To remove RapiGest, samples were acidified with trifluoroacetic acid (TFA), heated at 37 °C for 45 min and centrifuged 10 min at 17′000×g. Supernatants were then desalted with a C18 microspin column (Harvard Apparatus, Holliston, MA, USA) according to the manufacturer's instructions, completely dried under speed-vacuum and stored at −20 °C.
Samples were diluted at 1 μg/μL with loading buffer (5% CH3CN, 0.1% FA). Biognosys iRT peptides were added to each sample and 2 μg of peptides were injected onto the column. LC-ESI-MS/MS was performed on an Orbitrap Fusion Lumos Tribrid mass spectrometer (Thermo Scientific, San Jose, CA, USA) equipped with an Easy nLC1200 liquid chromatography system (Thermo Scientific, San Jose, CA, USA). Peptides were trapped on an Acclaim pepmap100, C18, 3 μm, 75 μm × 20 mm nano trap-column (Thermofisher) and separated on a 75 μm × 500 mm, C18 ReproSil-Pur (Dr. Maisch GmbH, Ammerbuch, Germany), 1.9 μm, 100 Å, custom-made column. The analytical separation was run for 135 min using a gradient of H2O/FA 99.9%/0.1% (solvent A) and CH3CN/H2O/FA 80.0%/19.9%/0.1% (solvent B). The gradient was run from 8% B to 28% B in 110 min, then to 42% B in 25 min, then to 95%B in 5 min with a final stay of 20 min at 95% B. Flow rate was of 250 nL/min a total run time was of 160 min. Data-Independent Acquisition (DIA) was performed with MS1 full scan at a resolution of 60,000 (FWHM) followed by 30 DIA MS2 scan with fix windows. MS1 was performed in the Orbitrap with an automatic gain control (AGC) target of 1 × 10^6, a maximum injection time of 50 ms and a scan range from 400 to 1240 m/z. DIA MS2 was performed in the Orbitrap using higher-energy collisional dissociation (HCD) at 30%. Isolation window was set to 28 m/z with an AGC target of 1 × 10^6 and a maximum injection time of 54 ms. […]

[2] = system: occludin expression in Caco-2 cells; experiment: Immunoblot of total protein extracts from Caco-2 cells, occludin; assay type: cell-based, human; settings: Caco-2, 1 h, peptides 50 μM, In 10 μM
Description: as §1, §2, §3

[3] = previous studies; cited from earlier work
From the text: Previous studies have shown that ZIP is not specifically and competitively inhibiting PKC ζ phosphorylation of some TJ proteins (occludin and ZO-1). The structural similarities of the PS of the PKC family does explain this non-specificity. Therefore, L-R5 would also be competitive with other PKCs and would interfere with most intracellular mechanisms involving PKCs. […] Given the absence o ...

[4] = molecular target: protein kinase C zeta (PKC ζ) (not stated (only the C-terminal fragment is called human)) (UniProt Q05513); experiment: MST; labelled PKC ζ fixed at 30 nM; occludin in serial dilution 0-11300 nM; L-R5 present as competitor at a fixed 1.25 mM; Tris buffer pH 7.4; hydrophilic capillaries
[5] = molecular target: protein kinase C zeta (PKC ζ) (not stated (only the C-terminal fragment is called human)) (UniProt Q05513); experiment: MST; PKC ζ labelled by RED-Tris-NTA on its His tag, fixed (20 nM with L-R5 at 0-4000 μM; 30 nM with occludin at 0-35000 nM); ligand in serial dilution; Tris buffer pH 7.4; hydrophilic capillaries; 20%, 40% and 80% MST power
occludin = molecular target: T1, occludin (UniProt Q16625 1-522); experiment: MST; occludin labelled by RED-Tris-NTA on its His tag, fixed at 50 nM; L-R5 in serial dilution 0-25000 μM; Tris buffer pH 7.4; hydrophilic capillaries; 20%, 40% and 80% MST power; settings: both partners purified
T1 chain: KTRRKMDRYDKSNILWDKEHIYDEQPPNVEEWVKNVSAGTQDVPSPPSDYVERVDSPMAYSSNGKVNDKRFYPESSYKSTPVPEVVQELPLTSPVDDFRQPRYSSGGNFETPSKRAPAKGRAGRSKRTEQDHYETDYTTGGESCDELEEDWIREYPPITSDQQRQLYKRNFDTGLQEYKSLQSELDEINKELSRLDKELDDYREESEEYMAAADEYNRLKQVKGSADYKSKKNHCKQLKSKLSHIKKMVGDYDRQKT

[6] = molecular target: T2, PKC ζ-occludin interaction (Homo sapiens, UniProt Q16625); experiment: Microscale thermophoresis (MST), interaction between PKC ζ and occludin, without and with L-R5 as competitor; assay type: binding; settings: labelled PKC ζ 30 nM, occludin as ligand 0-35 μM, no competitor, Tris buffer pH 7.4, n = 2
T2 construct: purchased Eurofins pharma (PKC ζ); occludin source not clearly printed (probably RayBiotech); host or cells: Sf21 insect cells (PKC ζ)
T2 sequence (Q16625 266-522 limits assumed): T1 chain
Description: The protein construct of PKC ζ active (recombinant enzyme expressed in Sf21 insect cells) was purchased from Eurofins pharma (Dundee, United Kingdom) and the recombinant human […] was purchased from RayBiotech (Peachtree Corners, GA, USA). Fluorescent labelling of both, PKC ζ and occludin was performed following the protocol of coupling the His-tag labelling kit RED-Tris-NTA 2nd generation (Nanotemper Technologies, Munich, Germany) to their respective histidine tail. The fluorescence of the tagged proteins was then measured with the monolith NT.115 microscale thermophoresis instrument (Nanotemper Technologies, Munich, Germany). An excitation LED of 100% was set for the Cap. Scan. The predicted optimal dilution was then calculated to obtain a final fluorescence signal of 100 Raw fluorescence [counts].
Hydrophilic capillaries were used for the different tests because the samples interacted with standard capillaries. […] The different solutions were analysed by MST at 20%, 40% and 80% MST power with a 100% LED intensity. […] The results and Kd values were analysed by MO.affinity analysis 3 software (Nanotemper Technologies, Munich, Germany).
Microscale thermophoresis is a method used to quantify the affinity between two molecules (e.g., proteins) by increasing the concentration of the ligand while keeping the concentration of the target fixed. […]

## CC(C)(C)C1=NN(c2cccc(Cl)c2)C(c2ccc(F)c(O)c2)C1 (centres unmarked) [In, 5-(3-(tert-Butyl)-1-(3-chlorophenyl)-4,5-dihydro-1H-pyrazol-5-yl)-2-fluorophenol]
[1]
  expression of ZO-1 (Western blot): no effect
Caco-2 cells; L-R5 50 μM or In 10 μM, n = 3
  number of downregulated proteins versus control (log 2 (FC) < 0): 10 proteins
  number of upregulated proteins versus control (log 2 (FC) ≥ 0): 6 proteins
Caco-2 cells; L-R5 50 μM or In 10 μM, p ≤ 0.05, n = 3
  number of significantly differentially expressed proteins versus control: 16 proteins
Caco-2 cells; L-R5 50 μM, In 10 μM, n = 3
  expression of E1A binding protein p300 (proteomics): significantly decreased
  expression of ZO-1 (proteomics): no impact
  expression of occludin (proteomics): no impact
[2]
  TJ protein expression (occludin and ZO-1, Western blot, Fig. 3): did not result in a significant decrease
[2]; normalised to actin
  expression of occludin (Western blot): no effect

## CCCCCCCCCCCCCC(=O)N[C@@H](C)C(=O)N[C@@H](CCCNC(=N)N)C(=O)N[C@@H](CCCNC(=N)N)C(=O)N[C@@H](Cc1c[nH]c2ccccc12)C(=O)N[C@@H](CCCNC(=N)N)C(=O)O [L-R5] (Myristoyl-ARRWR-OH)
[3]
  in vitro cytotoxicity: absence of cytotoxicity

## occludin (from UniProt Q16625 1-522) (natural protein)
[4]
  Kd: 2160 nM
[5]
  Kd: 617 nM

B1: L-R5 (myr-ARRWR), myristoylated pentapeptide (peptide)
peptide: Myristoyl-ARRWR
notes: also called L-R5 peptide; source: synthetic peptide, obtained from Bachem AG
occludin
  Kd: 606000 nM

B2: occludin: tight junction protein, His-tagged recombinant, used as ligand and as labelled target in MST (protein, UniProt Q16625 1-522, looked up)
Occludin: MSSRPLESPPPYRPDEFKPNHYAPSNDIYGGEMHVRPMLSQPAYSFYPEDEILHFYKWTSPPGVIRILSMLIIVMCIAIFACVASTLAWDRGYGTSLLGGSVGYPYGGSGFGSYGSGYGYGYGYGYGYGGYTDPRAAKGFMLAMAAFCFIAALVIFVTSVIRSEMSRTRRYYLSVIIVSAILGIMVFIATIVYIMGVNPTAQSSGSLYGSQIYALCNQFYTPAATGLYVDQYLYHYCVVDPQEAIAIVLGFMIIVAFALIIFFAVKTRRKMDRYDKSNILWDKEHIYDEQPPNVEEWVKNVSAGTQDVPSPPSDYVERVDSPMAYSSNGKVNDKRFYPESSYKSTPVPEVVQELPLTSPVDDFRQPRYSSGGNFETPSKRAPAKGRAGRSKRTEQDHYETDYTTGGESCDELEEDWIREYPPITSDQQRQLYKRNFDTGLQEYKSLQSELDEINKELSRLDKELDDYREESEEYMAAADEYNRLKQVKGSADYKSKKNHCKQLKSKLSHIKKMVGDYDRQKT
modifications: His tag
notes: tight junction protein, His-tagged recombinant, used as ligand and as labelled target in MST
[6]
  Kd: 617 nM

Reference: paper PMC9618981, “Impact of peptide permeation enhancer on tight junctions opening cellular mechanisms” (Biochemistry and Biophysics Reports, 2022)
